Test results reported in patent publication US12268674B2, “Mi-2β inhibitor as an immunotherapy agent” (BioVentures, LLC, priority 2021, dated 2025).

How the values were obtained:
[1] = test system: Mi-2β function (CXCL9, CXCL10, IRF1 expression) in A375 cells; assay: Cell-based assay of inhibitory activity on Mi-2β function, A375; details: summary of Table 3 (A375 and B16)
Procedure: The total RNA was extracted with QIAGEN RNeasy kit […] for cDNA synthesis with SuperScript II Reverse Transcriptase (Invitrogen). In total, 40 ng cDNA was used for quantitative real-time PCR amplification by TaqMan Gene Expression Master Mix (Thermo Fisher Scientific). The relative transcript levels were normalized with GAPDH expression. The data were calculated with the comparative CT method.

[2] = molecular target: T1, recombinant purified human Mi-2β protein (Homo sapiens, UniProt Q14839); assay: FRET-based nucleosome repositioning assay (EpiDyne-FRET); type: biochemical; details: FRET-based nucleosome repositioning assay; read-out: IC50 against Mi-2β
T1 construct: made in house
Procedure: To screen small molecules that inhibit Mi-2β activity, Homology Modeling was carried out using Structure Prediction Wizard in Prime (49, 50). Mi-2β belongs to the CHD family of chromatin remodelers, which share highly conserved ATPase/helicase domains (51, 52). The Homology Model of Mi-2β was generated using the yeast CHD1 structure (PDB code: 3MWY) as template and the sequence was obtained from Uniprot (53), which clearly depicted the interaction of Mi-2β binding pocket and ATP (FIG. 10a). Virtual screening was done with the enzyme hinge region ligands database and nucleoside mimetic database from Enamine. All ligands of ˜23,010 compounds were docked to the ATP binding site using SP docking and post-processed with Prime MM-GBSA. Ligands with a methyldihydroimidazopyridinone structure were predicted to bind best to the ATP binding region of Mi-2β. To analyze biochemically the inhibitory activity of those inhibitors, a Fluorescence Resonance Energy Transfer (FRET)-based nucleosome repositioning assay (54, 55) was designed and modified using recombinant purified human Mi-2β protein to screen an in-house library of small molecular compounds with a methyldihydroimidazopyridinone structure (FIG. 10b). Briefly, the recombinant nucleosome substrates consist of a Cy5-labeled human histone octamer (H2A T120C-Cy5) wrapped with 5′ Cy3-labeled DNA, which contains a terminal nucleosome 601 positioning sequence. The 601 sequence provides the most thermodynamically preferred locations on DNA for histone octamer (56). FRET signaling was monitored by exciting the nucleosomes at the Cy3 absorption maximum and measuring Cy5 emissions and consequently the FRET signal is at a maximum at the assembled starting point. In the presence of ATP, Mi-2β induces the histone octamer to translocate along the DNA such that the Cy3-labeled DNA 5′ end is moved away from the Cy5-labeled octamer and consequently the FRET signal is decreased (FIG. 10b). The reaction conditions for nucleosome repositioning were modified through multiple rounds of optimization and validation (FIG. 10c-d). […]

[3] = test system: melanoma; details: clinical data; cited from earlier work

T1 sequence (Q14839 whole entry): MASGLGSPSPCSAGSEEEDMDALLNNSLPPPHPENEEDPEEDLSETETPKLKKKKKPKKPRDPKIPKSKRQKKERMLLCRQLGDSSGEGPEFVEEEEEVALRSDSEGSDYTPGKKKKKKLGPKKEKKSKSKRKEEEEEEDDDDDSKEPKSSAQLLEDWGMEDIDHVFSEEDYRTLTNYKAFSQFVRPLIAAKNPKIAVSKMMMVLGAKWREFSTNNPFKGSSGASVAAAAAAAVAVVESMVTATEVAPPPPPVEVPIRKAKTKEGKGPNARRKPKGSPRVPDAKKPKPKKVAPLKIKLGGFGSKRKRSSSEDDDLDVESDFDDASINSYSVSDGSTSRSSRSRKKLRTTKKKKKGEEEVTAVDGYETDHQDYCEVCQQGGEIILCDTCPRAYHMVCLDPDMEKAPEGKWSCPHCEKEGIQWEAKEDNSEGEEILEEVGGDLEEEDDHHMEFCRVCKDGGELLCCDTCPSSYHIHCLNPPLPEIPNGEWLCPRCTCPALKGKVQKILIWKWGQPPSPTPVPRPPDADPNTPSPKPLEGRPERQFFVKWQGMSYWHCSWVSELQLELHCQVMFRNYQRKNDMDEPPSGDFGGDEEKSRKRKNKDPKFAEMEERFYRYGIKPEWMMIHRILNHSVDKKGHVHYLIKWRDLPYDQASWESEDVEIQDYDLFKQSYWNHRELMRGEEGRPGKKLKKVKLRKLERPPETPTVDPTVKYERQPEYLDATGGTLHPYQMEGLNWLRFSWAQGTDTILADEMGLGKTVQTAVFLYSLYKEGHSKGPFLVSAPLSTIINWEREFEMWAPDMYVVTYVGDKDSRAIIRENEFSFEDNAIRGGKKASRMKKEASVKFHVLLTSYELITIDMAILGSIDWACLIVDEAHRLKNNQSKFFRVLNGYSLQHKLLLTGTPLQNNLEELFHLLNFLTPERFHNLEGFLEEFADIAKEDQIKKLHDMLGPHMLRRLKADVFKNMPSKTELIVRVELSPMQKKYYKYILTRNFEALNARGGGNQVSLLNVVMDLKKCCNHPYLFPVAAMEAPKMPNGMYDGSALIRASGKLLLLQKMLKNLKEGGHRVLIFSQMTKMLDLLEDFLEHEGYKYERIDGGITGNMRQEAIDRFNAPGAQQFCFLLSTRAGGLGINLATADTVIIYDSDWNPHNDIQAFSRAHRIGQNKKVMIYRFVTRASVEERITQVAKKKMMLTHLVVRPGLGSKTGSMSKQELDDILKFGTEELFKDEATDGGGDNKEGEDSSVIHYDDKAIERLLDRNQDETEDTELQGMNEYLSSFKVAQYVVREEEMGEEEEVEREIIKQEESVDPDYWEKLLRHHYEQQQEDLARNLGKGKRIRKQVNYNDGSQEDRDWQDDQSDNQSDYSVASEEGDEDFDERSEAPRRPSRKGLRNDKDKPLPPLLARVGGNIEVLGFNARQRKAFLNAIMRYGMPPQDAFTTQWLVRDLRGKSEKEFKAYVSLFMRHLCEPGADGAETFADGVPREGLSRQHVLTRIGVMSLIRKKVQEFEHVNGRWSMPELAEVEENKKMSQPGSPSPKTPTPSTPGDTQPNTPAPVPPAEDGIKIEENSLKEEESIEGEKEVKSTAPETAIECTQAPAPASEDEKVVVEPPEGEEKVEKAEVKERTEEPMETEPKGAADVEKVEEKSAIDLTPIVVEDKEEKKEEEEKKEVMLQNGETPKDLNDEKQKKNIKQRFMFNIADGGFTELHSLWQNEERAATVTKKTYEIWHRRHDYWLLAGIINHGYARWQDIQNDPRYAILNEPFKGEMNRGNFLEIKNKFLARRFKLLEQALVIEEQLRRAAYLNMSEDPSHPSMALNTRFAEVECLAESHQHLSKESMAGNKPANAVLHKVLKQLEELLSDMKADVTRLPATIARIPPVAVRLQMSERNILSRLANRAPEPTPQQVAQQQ

Cc1c(C(=O)NC2CCn3ccnc3C2)cccc1-c1cnc2[nH]c(=O)n(C)c2c1 (stereo not shown) [SJW-6-004]
inhibitory activity on Mi-2β function (enhanced expression of IFN-γ-responsive genes) [1]: high inhibitory activity

Cn1c(=O)[nH]c2ncc(-c3cccc(C(=O)NC4CCn5ccnc5C4)c3)cc21 (stereo not shown) [Z36]
IC50 [2]: 6.97 ± 2.07 µM | inhibitory activity on Mi-2β function (enhanced expression of IFN-γ-responsive genes) [1]: high inhibitory activity

Cn1c(=O)n(C)c2ncc(-c3cccc(C(=O)NC4CCn5ccnc5C4)c3)cc21 (stereo not shown) [ZW-7-023]
inhibitory activity on Mi-2β function (enhanced expression of IFN-γ-responsive genes) [1]: high inhibitory activity

O=C(NC1CCn2ccnc2C1)c1cccc(-c2cnc3[nH]c(=O)n(Cc4cccc(C(F)(F)F)c4)c3c2)c1 (stereo not shown) [ZW-7-059]
inhibitory activity on Mi-2β function (enhanced expression of IFN-γ-responsive genes) [1]: high inhibitory activity

ipilimumab: anti-CTLA-4 antibody
melanoma patients that respond [3]: 20%

pembrolizumab: anti-PD-1 antibody
melanoma patients that respond [3]: 33%
